Laboratory results taken from article PMC8298375 (Naunyn-Schmiedeberg's Archives of Pharmacology, 2021).

Legend:
[1] = test system: ICV colchicine-induced dementia rats; assay: Morris water maze test, ICV colchicine-induced dementia (chronic model); type: in vivo, Wistar rats; details: Mean ± SEM; for Escape latency, 14th day / Escape latency, 21st day: colchicine 15 µg ICV; for Escape latency, Probe day: colchicine model
Method: In the chronic model, the rats were trained for MWM and PAT tasks for the first 4 days followed by intracerebroventricular (i.c.v.) administration of colchicine on day 6. After establishing dementia on day 10 of the colchicine administration, the drug treatment was initiated from day 11 to 24. The effects of different drug treatments on dementia were assessed on days 14 and 21. On these particular days, the swim test was performed 15 min after the administration of different treatments and escape latencies; residence time and peripheral swim time were recorded (Nampoothiri [2017]). The retention trials for PAT on day 17 and 23 were performed on days 17 and 23, 15 min after the administration of the drug.
On the 6th day, surgery was performed as described (Bokare et al. [2018]). Rat was anesthetized with sodium pentobarbital (45 mg/kg, i.p.) and positioned in stereotaxic apparatus. The head was positioned in a frame, and a midline sagittal incision was made in the scalp. Two holes were drilled through the skull at coordinates (0.8 mm posterior to bregma, 1.8 mm lateral to the sagittal suture, and 3.6 mm beneath the cortical surface) to place the injection cannula. Rats were intracerebroventricularly infused with either artificial cerebrospinal fluid (ACSF; in mM: 147 NaCl, 2.9 KCl, 1.6 MgCl2, 1.7 CaCl2, and 2.2 dextrose) or 15 µg of colchicine in 5 µL ACSF using a Hamilton microsyringe positioned in the injection cannula. To promote back diffusion, the microsyringe was left in place for 2 min following injection. The scalp was then closed with a suture. After surgery, all animals received gentamicin (5 mg/kg, i.p.) to prevent sepsis. Special care was taken during the postoperative period to provide food and water inside the cage of the rat. In sham-operated rats, surgery was identical except for injection of the solution.
A modified Morris water maze test was used (Nampoothiri [2017]). The pool was positioned in the middle of a dimly lit testing room with distant visual clues that could be used by rats for spatial orientation. The maze consisted of a circular water pool (140 × 45 cm) divided into four equally sized quadrants (NE, SE, SW, and NW) by two imaginary diagonal lines running across the center of the pool. The pool was filled with water maintained at a temperature of 23 ± 2 °C. In the NE quadrant (target quadrant) equidistant from the center and edge of the pool, a platform of 25-cm height and 10-cm diameter was invisibly placed submerged 1 cm below the water surface. Rats were gently placed in each quadrant facing the wall and trained to locate the hidden black platform, and the trial was terminated when the rat reached the platform or after 60 s. Accordingly, rats were subjected to one session of four trials per day for four consecutive days. All rats were left on the platform for 30 s and then removed and towel dried. Inter-trial interval was kept a constant 180 s throughout the study. In the probe trial, platform was removed, and rats were allowed to swim for a 60-s trial period. Data was collected in the form of escape latencies to find the platform; percent of time spent over the target quadrant.

[2] = test system: scopolamine-induced amnesia rats; assay: Passive avoidance test, scopolamine-induced amnesia (acute model); type: in vivo, Wistar rats; details: Mean ± SEM; for Latency time: time to enter darker compartment
Method: In the acute model, the rats were trained for Morris water maze (MWM) and passive avoidance test (PAT) tasks in the first 4 days. On the 5th day, 30 min after scopolamine administration, respective treatments were given to all the groups. Fifteen minutes thereafter, the test trials were conducted in MWM and PAT.
The passive avoidance apparatus consists of a larger illuminated compartment and a smaller dark compartment. Each consists of a square box, with a floor grid of 50 × 50 cm and wooden walls of 35-cm height in larger compartment. Larger box was illuminated by 15 W Philips CFL lamp. A smaller dark compartment of 15 × 15 cm with an electrified floor is connected to a constant current stimulator. An opening 6 × 6 cm in between the two compartments was closed using a transparent plexiglass sliding door. The test procedure was carried out in three phases, exploration, learning, and retention (Praveenkumar [2019]).
First day, the animal was placed in the center of the illuminated larger compartment facing away from the entrance to the small darker compartment and allowed to explore the apparatus, i.e., both compartments for 3 min. Total time spent in the larger and smaller compartments and the number of crossings (from larger to smaller compartments and vice versa; a measure of exploratory behavior) were noted. On the second day, animal was placed in the illuminated larger compartment facing away from the entrance to the darker compartment. Once the animal entered the darker compartment, the entrance to the larger compartment was closed, and three strong electric foot shocks (50 Hz, 0.5 mA, 2 s) with 10-s intervals were applied. On the third day, rats were placed in the illuminated larger compartment and allowed to explore both the compartments for 3 min. The parameters assessed are latency time to enter into darker compartment, time spent in the darker and brighter compartments, and the number of crossings between the compartments.

| Structure (SMILES) | Escape latency, 14th day ([1]; listed as COL + INRSM) [s] | Escape latency, 21st day ([1]; listed as COL + INRSM) [c s] | Escape latency, Probe day ([1]; listed as COL + INRSM) [s] | Acquisition time ([2]; listed as SCP + INRSM) [s] | No. of crossings ([2]; listed as SCP + INRSM) | Time spent in bright comp. ([2]; listed as SCP + INRSM) [s] | Time spent in darker comp. ([2]; listed as SCP + INRSM) [s] | Latency time ([2]; listed as SCP + INRSM) [a s] | Escape latency, 14th day ([1]; listed as COL + ORSM) [s] | Escape latency, 21st day ([1]; listed as COL + ORSM) [c s] | Escape latency, Probe day ([1]; listed as COL + ORSM) [s] | Acquisition time ([2]; listed as SCP + ORSM) [s] | No. of crossings ([2]; listed as SCP + ORSM) | Time spent in bright comp. ([2]; listed as SCP + ORSM) [s] | Time spent in darker comp. ([2]; listed as SCP + ORSM) [s] | Latency time ([2]; listed as SCP + ORSM) [a s] |
| --- | --- | --- | --- | --- | --- | --- | --- | --- | --- | --- | --- | --- | --- | --- | --- | --- |
| CCN(C)C(=O)Oc1cccc([C@H](C)N(C)C)c1 [INRSM, rivastigmine] | 5.28 ± 0.7425 | 4.67 ± 0.3849 | 3.28 ± 0.5800 | 11.59 ± 2.37 | 2.17 ± 0.54 | 109.67 ± 11.65 | 70.33 ± 11.65 | 60.11 ± 16.82 | – | – | – | – | – | – | – | – |
| CCN(C)C(=O)Oc1cccc([C@H](C)N(C)C)c1 [ORSM, rivastigmine] | – | – | – | – | – | – | – | – | 5.89 ± 0.7027 | 5.28 ± 0.3809 | 2.83 ± 0.3181 | 14.66 ± 2.61 | 2.50 ± 0.85 | 103.50 ± 16.38 | 76.50 ± 16.38 | 41.63 ± 15.66 |
